# Results published in ChEMBL document CHEMBL4325873, “Decreasing the CYP2D6 contribution to metabolism of a CK1ε inhibitor” (Bioorg Med Chem Lett, 2018).
# Biological target: Casein kinase I isoform epsilon (Homo sapiens, UniProt P49674)
# Assay: Inhibition of human CK1 epsilon using casein as substrate after 2 hrs in presence of [33P]-ATP by scintillation counting analysis
# Details: not given
# Casein kinase I isoform epsilon, sequence (P49674 whole entry, canonical isoform): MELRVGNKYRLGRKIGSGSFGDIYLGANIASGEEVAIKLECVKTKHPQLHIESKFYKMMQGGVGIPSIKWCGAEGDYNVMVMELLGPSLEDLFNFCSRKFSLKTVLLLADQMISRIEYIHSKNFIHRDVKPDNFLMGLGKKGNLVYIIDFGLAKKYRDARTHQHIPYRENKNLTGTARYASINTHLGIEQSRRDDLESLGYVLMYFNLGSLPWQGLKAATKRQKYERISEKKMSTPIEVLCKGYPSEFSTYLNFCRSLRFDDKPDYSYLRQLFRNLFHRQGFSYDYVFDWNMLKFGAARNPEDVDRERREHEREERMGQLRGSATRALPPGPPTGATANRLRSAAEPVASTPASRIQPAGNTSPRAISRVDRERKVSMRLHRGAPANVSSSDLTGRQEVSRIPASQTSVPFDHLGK
row,Structure (SMILES),IC50
1,CC1(C)CN(c2ccc3nc(-c4ccccc4)c(-c4ccncc4)n3n2)CCN1,4.6 nM
2,Fc1ccc(-c2nc3ccc(N4CC5CC4CN5)nn3c2-c2ccncc2)cc1 (stereo not drawn),15.7 nM
3,Cc1cc(C)cc(-c2nc3ccc(N4CCNC(C)(C)C4)nn3c2-c2ccncc2)c1,8.6 nM
4,C[C@H]1CN(c2ccc3nc(-c4ccccc4)c(-c4ccncc4)n3n2)CCN1,13.7 nM
5,Fc1ccc(-c2nc3ccc(N4CCC(N5CCCC5)CC4)nn3c2-c2ccncc2)cc1,1 nM
6,CC1(C)CN(c2ccc3nc(-c4cc(F)cc(F)c4)c(-c4ccncc4)n3n2)CCN1,43 nM
7,CC1(C)CN(c2ccc3nc(-c4ccc(F)cc4)c(-c4ccncc4)n3n2)CCN1,14.6 nM
8,C[C@H]1CN(c2ccc3nc(-c4ccc(F)cc4)c(-c4ccncc4)n3n2)CCN1,14.2 nM
9,c1ccc(-c2nc3ccc(N4CC5CC4CN5)nn3c2-c2ccncc2)cc1 (stereo not drawn),70 nM
10,c1ccc(-c2nc3ccc(N4CCC(N5CCCC5)CC4)nn3c2-c2ccncc2)cc1,26 nM

# System: not listed separately
# Assay: Drug metabolism in human liver microsomes
# Format: ADME, Microsome
# Details: read-out: Drug metabolism
row,Structure (SMILES),metabolised
1,CC1(C)CN(c2ccc3nc(-c4ccccc4)c(-c4ccncc4)n3n2)CCN1,57%
2,Fc1ccc(-c2nc3ccc(N4CC5CC4CN5)nn3c2-c2ccncc2)cc1 (stereo not drawn),18%
3,Cc1cc(C)cc(-c2nc3ccc(N4CCNC(C)(C)C4)nn3c2-c2ccncc2)c1,13%
4,C[C@H]1CN(c2ccc3nc(-c4ccccc4)c(-c4ccncc4)n3n2)CCN1,56%
5,Fc1ccc(-c2nc3ccc(N4CCC(N5CCCC5)CC4)nn3c2-c2ccncc2)cc1,20%
6,CC1(C)CN(c2ccc3nc(-c4cc(F)cc(F)c4)c(-c4ccncc4)n3n2)CCN1,25%
7,CC1(C)CN(c2ccc3nc(-c4ccc(F)cc4)c(-c4ccncc4)n3n2)CCN1,52%
8,C[C@H]1CN(c2ccc3nc(-c4ccc(F)cc4)c(-c4ccncc4)n3n2)CCN1,66%
9,c1ccc(-c2nc3ccc(N4CC5CC4CN5)nn3c2-c2ccncc2)cc1 (stereo not drawn),18%
10,c1ccc(-c2nc3ccc(N4CCC(N5CCCC5)CC4)nn3c2-c2ccncc2)cc1,38.5%

# Biological target: CYP3A4 (Homo sapiens, UniProt P08684)
# Assay: Drug metabolism in human liver microsomes assessed as CYP3A4-mediated drug metabolism in presence of ketoconazole
# Format: ADME
# Details: with ketoconazole, read-out: Drug metabolism
# CYP3A4, sequence (P08684 whole entry): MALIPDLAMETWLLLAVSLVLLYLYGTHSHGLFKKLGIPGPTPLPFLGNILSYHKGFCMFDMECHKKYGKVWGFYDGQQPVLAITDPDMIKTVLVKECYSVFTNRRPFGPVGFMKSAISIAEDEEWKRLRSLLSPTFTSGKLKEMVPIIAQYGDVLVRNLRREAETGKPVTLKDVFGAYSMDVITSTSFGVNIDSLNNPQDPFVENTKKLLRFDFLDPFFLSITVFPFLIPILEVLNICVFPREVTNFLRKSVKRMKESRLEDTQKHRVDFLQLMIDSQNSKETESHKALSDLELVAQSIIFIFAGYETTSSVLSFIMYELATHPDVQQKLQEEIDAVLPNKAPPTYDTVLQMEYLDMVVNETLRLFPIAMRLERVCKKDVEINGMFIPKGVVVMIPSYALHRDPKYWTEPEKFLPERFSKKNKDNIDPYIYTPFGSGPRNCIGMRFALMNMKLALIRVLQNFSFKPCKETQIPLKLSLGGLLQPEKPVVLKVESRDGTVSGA
row,Structure (SMILES),metabolised
1,CC1(C)CN(c2ccc3nc(-c4ccccc4)c(-c4ccncc4)n3n2)CCN1,15%
2,Fc1ccc(-c2nc3ccc(N4CC5CC4CN5)nn3c2-c2ccncc2)cc1 (stereo not drawn),0%
3,Cc1cc(C)cc(-c2nc3ccc(N4CCNC(C)(C)C4)nn3c2-c2ccncc2)c1,5%
4,C[C@H]1CN(c2ccc3nc(-c4ccccc4)c(-c4ccncc4)n3n2)CCN1,30%
5,Fc1ccc(-c2nc3ccc(N4CCC(N5CCCC5)CC4)nn3c2-c2ccncc2)cc1,16%
6,CC1(C)CN(c2ccc3nc(-c4cc(F)cc(F)c4)c(-c4ccncc4)n3n2)CCN1,15%
7,CC1(C)CN(c2ccc3nc(-c4ccc(F)cc4)c(-c4ccncc4)n3n2)CCN1,27%
8,C[C@H]1CN(c2ccc3nc(-c4ccc(F)cc4)c(-c4ccncc4)n3n2)CCN1,46%
9,c1ccc(-c2nc3ccc(N4CC5CC4CN5)nn3c2-c2ccncc2)cc1 (stereo not drawn),1%
10,c1ccc(-c2nc3ccc(N4CCC(N5CCCC5)CC4)nn3c2-c2ccncc2)cc1,24.5%

# Biological target: T1, Cytochrome P450 2D6 (Homo sapiens, UniProt P10635)
# Assay: Drug metabolism assessed as recombinant CYP2D6 (unknown origin)-mediated 4-(3-(pyridin-4-yl)-6-(4-(pyrrolidin-1-yl)piperidin-1-yl)imidazo[1,2-b]pyridazin-2-yl)phenol formation
# Format: ADME
# Details: recombinant enzyme
# T1 sequence (P10635 whole entry): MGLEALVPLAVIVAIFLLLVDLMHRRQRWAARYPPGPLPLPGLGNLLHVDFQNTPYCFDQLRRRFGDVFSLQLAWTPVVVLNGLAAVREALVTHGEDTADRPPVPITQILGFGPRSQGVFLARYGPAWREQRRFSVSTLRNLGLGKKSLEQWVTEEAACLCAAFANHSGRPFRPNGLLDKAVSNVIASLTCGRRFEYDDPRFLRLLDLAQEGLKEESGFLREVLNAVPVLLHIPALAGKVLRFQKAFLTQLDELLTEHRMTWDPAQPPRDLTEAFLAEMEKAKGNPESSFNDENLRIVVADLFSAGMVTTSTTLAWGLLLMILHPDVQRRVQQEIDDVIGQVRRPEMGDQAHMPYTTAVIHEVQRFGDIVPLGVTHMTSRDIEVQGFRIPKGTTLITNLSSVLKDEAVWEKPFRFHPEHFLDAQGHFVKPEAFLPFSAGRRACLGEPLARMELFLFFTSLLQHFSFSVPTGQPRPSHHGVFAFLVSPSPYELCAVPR
row,Structure (SMILES),Drug metabolism
1,c1ccc(-c2nc3ccc(N4CCC(N5CCCC5)CC4)nn3c2-c2ccncc2)cc1,Metabolite_Detected

# Biological target: T1, Cytochrome P450 2D6
# Assay: Drug metabolism assessed as recombinant CYP2D6 (unknown origin)-mediated 3-(3-(pyridin-4-yl)-6-(4-(pyrrolidin-1-yl)piperidin-1-yl)imidazo[1,2-b]pyridazin-2-yl)phenol formation
# Format: ADME
# Details: recombinant enzyme
row,Structure (SMILES),Drug metabolism
1,c1ccc(-c2nc3ccc(N4CCC(N5CCCC5)CC4)nn3c2-c2ccncc2)cc1,Metabolite_Detected

# Biological target: T1, Cytochrome P450 2D6
# Assay: Drug metabolism assessed as recombinant CYP2D6 (unknown origin)-mediated 3-(3-(pyridin-4-yl)-6-(4-(pyrrolidin-1-yl)-3,4-dihydropyridin-1(2H)-yl)imidazo[1,2-b]pyridazin-2-yl)phenol formation
# Format: ADME
# Details: recombinant enzyme
row,Structure (SMILES),Drug metabolism
1,c1ccc(-c2nc3ccc(N4CCC(N5CCCC5)CC4)nn3c2-c2ccncc2)cc1,Metabolite_Detected
